The source of these data is US7101844B2, “Cytoplasmic transduction peptides and uses thereof” (Creagene, Inc., priority 2002, dated 2006).

Common to all, as to type: cell-based
The test system of assay [1] is HeLa cells. Briefly: Transduction of PTD- and CTP-β-galactosidase into HeLa cells (X-gal staining after fixation). Conditions: for transduction potential / order of transduction potentials into HeLa cells: 100 μg/ml, 1 hr; for transduction potential: fixation; for order of transduction potentials into HeLa cells: β-galactosidase fusion, X-gal staining. From the text: Although various other substitutions could be performed, it is essential in this invention that the introduction of a positive charge by arginine and the substitution by an α-helix stabilizing amino acid should be carried out for maintaining the principle function of the PTD peptide. Therefore, as a substitute amino acid, the positively charged amino acid is restricted to arginine, and the negatively charged amino acid is restricted to glutamic acid. β-galactosidase was fused to the CTP candidate peptide, the fusion proteins were isolated and purified (see FIG. 2), and HeLa cells were treated with each of the fusion proteins. This was then followed by an analysis of the transduction potential and a determination of the extent of the cytoplasmic remaining property.
The transduction potential of the PTD and CTP candidates was tested with HeLa cells. Using a 24-well plate (Nunc), 5×10^4 HeLa cells were inoculated into high glucose DMEM (containing 10% FBS) and cultured for 36 hr. The cells were rinsed with PBS and treated with 100 μg/ml of PTD- and CTP-β-galactosidase in an opti-MEM I medium. After 1-hr incubation, cells were fixed for 10 min at room temperature with a fixation solution (2% formaldehyde, 0.2% glutaraldehyde in PBS). Then, the cells were rinsed twice with PBS, and stained for 2 hr with dye (0.1% X-gal, 5 mM potassium ferricyanide, 5 mM potassium ferrocyanide, 2 mM MgCl2 in PBS) to examine their transduction potential (see FIG. 3). The samples showing a low level of staining, even after a 2-hr staining, were incubated overnight, and then stained for the relative transduction potential. The transduction potentials of the PTD and CTP candidates into HeLa cells were seen to be in the following order: PTD5<CTP502<<CTP501=CTP506<CTP507<CTP505<CTP503=CTP504<CTP508=CTP510=MTS<CTP509<<PTD=CTP511<<CTP512.

Assay [2] has as its system HeLa cells. Briefly: Subcellular localization of CTP-β-gal by confocal scanning microscope. Conditions: β-galactosidase fusion protein, 100 μg/ml, 1 hr. The source says:
To select cytoplamic transduction peptides (CTPs) of interest, HeLa cells were transduced with CTP-β-galactosidase, and then examined under the confocal scanning microscope. Before the confocal analysis, cells were stained with mouse anti-β-galactosidase antibody and 2nd antibodies conjugated with FITC (Fluorescence-iso-thio-cyanate) or with PE (phycoerythrin) together with DNA staining reagent (green fluorescence SYTO-16 DNA staining dye, Molecular Probe). First, HeLa cells (5×10^5 cells/ml) were plated onto a 6-well plate containing sterilized cover-slips and cultured overnight at 37° C. CO2 incubator. The cells were washed with PBS (pH 7.4) and 1 ml of an OPTI-MEM I medium was added, followed by treatment with candidate CTP-fused proteins (100 μg/ml). As a positive control, PTD-β-galactosidase fusion protein was employed, and as a negative control, only β-galactosidase protein was used. Following the treatment with candidate CTP-β-galactosidase fusion proteins, cells were incubated for 1 hr at 37° C. incubator. The cells were rinsed three times with PBS and fixed with 2% paraformaldehyde for 20 min at 4° C. HeLa cells fixed were washed twice with washing buffer (PBS containing 0.2% BSA and 0.02% sodium azide). To stain the cells with antibody, cells were pre-treated with 0.5% Triton X-100 (in PBS, Sigma) at 4° C. for 20 min. Cells were washed three times with washing buffer and then stained with mouse anti-β-galactosidase antibody (diluted 1:2,000, Sigma) for 1 hr at 4° C. as a primary antibody and then washed three times with washing buffer. Cells were then incubated with FITC-conjugated goat anti-mouse IgG (diluted 1:2,000, Jackson Laboratory) as a secondary antibody for 20 min at 4° C. Washed 3 times with the same washing buffer, cells were fixed on a slide glass with fluorescence mounting medium (DAKO) and the edge of slide glass was sealed with nail vanish.
Double staining was carried out with SYTO-16 DNA staining dye as follows: First, the cells were incubated with the primary antibodies under the same conditions and rinsed three times. Then, the cells were incubated at 4° C. for 20 min with PE-conjugated goat anti-mouse IgG PE (diluted 1:2,000, Jackson Laboratory). Washed three times with washing buffer, cells were incubated with SYTO-16 DNA staining dye (diluted 1:1,000, DAKO) for 20 min at 4° C. Cells were fixed and sealed on a slide glass and then examined under a confocal laser scanning microscope.
In the present experiment, LEICA TCS NT SP confocal microscope (LEICA Lasertech GmbH, Heidelverg, Germany) was employed, which was equipped with lager generator of argon (Ar) and krypton (Kr), scanning device, and filter capable of detecting FITC (510–550 nm) and PE (600–660) at independent channel. Photographs were taken by PL-APO X100 objective. For single staining, the cells were sectioned into 4-layers and fluorescence and transmission photographs were taken. For double staining, FITC, PE, and transmission photographs were taken using optimal respective filter.

In assay [3] the test system is HeLa cells. Nature of the assay: Subcellular localization of CTP-FITC by confocal microscope without cell fixation. Conditions: FITC-labeled peptide, 25 μg/ml, 1 hr. The source says: Fixation step is inevitable for examining the subcellular localization of the transduced β-gal in the cells with antibodies. However, according to the previous reports, the fusion protein attached to cell surface is very likely to be introduced into the cell during a cell fixation procedure, which may affect its transduction potential and its subcellular localization. However, FITC-labeled membrane permeation peptides allow its subcellular localization to be observed under a confocal microscope without cell fixation. Monolayered HeLa cells were treated for 1 hr with FITC-labeled CTP, PTD or MTS at a concentration of 25 μg/ml, and washed three times with HBSS, followed by observation under a confocal microscope without cell fixation.

[4] abbreviates: β-galactosidase fusion protein, HeLa cells.

“Also recorded” adds a separate entry of the source.

As for “CTP501: CTP candidate (1P), sequence PARAARRAARR”, the transduction potential result in the assay on HeLa cells [1] (setting [4]) is “low-potential”. For the same substance, the “order of transduction potentials into HeLa cells” value (from here on “order”) with HeLa cells [1] is given as “CTP502<<CTP501=CTP506”.
For “CTP502: CTP candidate (2P), sequence YPRAARRAARR”, in that order: “low-potential” and “PTD5<CTP502<<CTP501”.
For “CTP503: CTP candidate (2R11A), sequence YRRAARRAARA”, in that order: “excellent transduction potential” and “CTP505<CTP503=CTP504”.
With “CTP504: CTP candidate (2G), sequence YGRAARRAARR”, the “cytoplasmic remaining property / subcellular localization” value with HeLa cells [2] is “high cytoplasmic remaining property”. In the assay on HeLa cells [1] (setting [4]), the “transduction potential as percentage of wild type PTD fusion protein” value is reported as 10%, the “transduction potential higher than PTD5” value was determined as 20 fold and the transduction potential entry is on record as “excellent transduction potential”. Besides, the “order” value in the assay with HeLa cells [1] is recorded as “CTP503=CTP504<CTP508”.
“CTP505: CTP candidate (4E), sequence YAREARRAARR”: the transduction potential result with HeLa cells [1] (setting [4]) is listed as “excellent transduction potential”. Further, the “order” value in the assay with HeLa cells [1] is “CTP507<CTP505<CTP503”.
For the substance “CTP506: CTP candidate (2E4E), sequence YEREARRAARR”, in the assay on HeLa cells [1] (setting [4]), the transduction potential result is “low-potential”. Moreover, the “order” value in the assay on HeLa cells [1] is “CTP501=CTP506<CTP507”.
Regarding “CTP507: CTP candidate (2K), sequence YKRAARRAARR”, the transduction potential result in the assay with HeLa cells [1] (setting [4]) was “low-potential; also recorded: excellent transduction potential”. In addition, the “order” value with HeLa cells [1] is “CTP506<CTP507<CTP505”.
For the substance “CTP508: CTP candidate (4K), sequence YARKARRAARR”, the “cytoplasmic remaining property / subcellular localization” value in the assay with HeLa cells [2] was “much stronger cytoplasmic remaining property than PTD; also recorded: much higher than the wild type PTD; also recorded: significantly high”. The subcellular localization entry with HeLa cells [3] is “observed only in the cytoplasm, and not in the nucleus”. In addition, in the assay with HeLa cells [1] (setting [4]), the “transduction potential as percentage of wild type PTD fusion protein” value was 20% and the transduction potential entry was “excellent transduction potential; also recorded: transduction potential lower than wild type PTD; also recorded: significantly high transduction potential”. Further, in the assay with HeLa cells [1], the “order” value is on record as “CTP504<CTP508=CTP510=MTS”.
On to “CTP509: CTP candidate (2K4K), sequence YKRKARRAARR”, for which, in the assay on HeLa cells [2], the “cytoplasmic remaining property / subcellular localization” value is “much stronger cytoplasmic remaining property than PTD; also recorded: much higher than the wild type PTD; also recorded: significantly high”. Besides, in the assay on HeLa cells [1] (setting [4]), the transduction potential result is “transduction potential higher than CTP508; also recorded: transduction potential lower than wild type PTD; also recorded: significantly high transduction potential”. For the same substance, the “order” value in the assay with HeLa cells [1] was “MTS<CTP509<<PTD”.
Take “CTP510: CTP candidate (2G4R), sequence YGRRARRAARR”: in the assay with HeLa cells [1], the “order” value was “CTP508=CTP510=MTS”.
For “YGRKKRRQRRR [PTD, protein transduction domain of HIV-1 Tat protein, reference compound]”, the subcellular localization result with HeLa cells [3] was “FITC signal only in the nucleus, but not in the cytoplasm”. The “order” value with HeLa cells [1] is “CTP509<<PTD=CTP511”.
